# Test results from US20260200916A1, “6,6 BICYCLIC HETEROCYLES USEFUL AS INHIBITORS OF NOD-LIKE RECEPTOR PROTEIN 3” (Merck Sharp & Dohme LLC, priority 2022, published 2026).
# Target: T1, NLRP3 inflammasome (Homo sapiens, UniProt Q96P20)
# T1 construct: host or cells: THP-1 human monocytic cells, PMA-differentiated, gramicidin-stimulated
# Experiment: ASC-SPECK formation in THP-1 cells after gramicidin stimulation (NLRP3 inflammasome activation)
# Format: cell-based
# Conditions: PMA-treated human monocytic THP-1 cells, compound added 1 h before 12.5 ug/ml gramicidin, 3-hour treatment, ASC SPECK imaging; read-out: EC50 (nM), inhibition of NLRP3 inflammasome activation
# Experimental: The ability of compounds to inhibit NLRP3 inflammasome activation was determined in vitro by monitoring formation of the ASC-SPECK in human monocytic THP-1 cells after stimulation. THP-1 cells (ATCC catalog #TIB-202) were maintained in complete growth media containing Roswell Park Memorial Institute RPMI (ATCC catalog #30-2001), 10% heat inactivated fetal bovine serum, 1× penicillin/streptomycin and 0.05 mM 2-mercaptoethanol. At the start of the assay, undifferentiated THP-1 cells were plated at a density of 20,000 cells per well in a 384-well plate (Poly-D-lysine coated Cell Carrier Ultra microplate, Perkin Elmer catalog #6057500) in complete growth media supplemented with 10 ng/ml phorbol 12-myristate 13-acetate (PMA; Sigma catalog #P8139), and then incubated overnight. The next day, media was replaced with assay media [RPMI (Gibco catalog #11875-093), 0.01% bovine serum albumin (BSA)]. Compounds were serially diluted in DMSO and then added to wells one hour prior to the addition of 12.5 ug/ml Gramicidin (Enzo Lifescience, catalog #ALX-350-233-M005). All incubations were carried out at 37° C. (5% C02/95% air). Following a 3-hour treatment with gramicidin, cells are fixed with 4% paraformaldehyde and stored at 4° C. until immunofluorescence staining.
# Immunofluorescence staining: Anti-ASC antibody (MBL catalog #D086-3) was desalted and labeled with Alexa 488 antibody labeling kit (Thermo catalog #A20181) prior to use as described below. After fixation, the following steps were carried out at room temperature. Cells were first permeabilized with 0.3% Triton X-100 in phosphate-buffered saline (PBS) for 15 minutes and then incubated in blocking buffer containing 5% goat serum, 0.3% tween-20 and 0.03% sodium azide in PBS for 1 hour. Cells were stained with a mixture of ASC-Alexa 488 antibody (diluted 1:200 in blocking buffer) and nuclear stain DRAQ5 (1:5000 in blocking buffer, Thermo catalog #62251) in blocking buffer for 1 hour. Following a wash with 0.3% Tween-20 in PBS, plates were imaged with an Opera Phenix High Content Screening System. The number of DRAQ5 positive cells containing ASC SPECKS were quantified in each well.
# Data analysis: EC50 values were calculated by standard curve-fitting analysis using an internally developed program in TIBCO Spotfire software.
# T1 sequence (Q96P20 whole entry): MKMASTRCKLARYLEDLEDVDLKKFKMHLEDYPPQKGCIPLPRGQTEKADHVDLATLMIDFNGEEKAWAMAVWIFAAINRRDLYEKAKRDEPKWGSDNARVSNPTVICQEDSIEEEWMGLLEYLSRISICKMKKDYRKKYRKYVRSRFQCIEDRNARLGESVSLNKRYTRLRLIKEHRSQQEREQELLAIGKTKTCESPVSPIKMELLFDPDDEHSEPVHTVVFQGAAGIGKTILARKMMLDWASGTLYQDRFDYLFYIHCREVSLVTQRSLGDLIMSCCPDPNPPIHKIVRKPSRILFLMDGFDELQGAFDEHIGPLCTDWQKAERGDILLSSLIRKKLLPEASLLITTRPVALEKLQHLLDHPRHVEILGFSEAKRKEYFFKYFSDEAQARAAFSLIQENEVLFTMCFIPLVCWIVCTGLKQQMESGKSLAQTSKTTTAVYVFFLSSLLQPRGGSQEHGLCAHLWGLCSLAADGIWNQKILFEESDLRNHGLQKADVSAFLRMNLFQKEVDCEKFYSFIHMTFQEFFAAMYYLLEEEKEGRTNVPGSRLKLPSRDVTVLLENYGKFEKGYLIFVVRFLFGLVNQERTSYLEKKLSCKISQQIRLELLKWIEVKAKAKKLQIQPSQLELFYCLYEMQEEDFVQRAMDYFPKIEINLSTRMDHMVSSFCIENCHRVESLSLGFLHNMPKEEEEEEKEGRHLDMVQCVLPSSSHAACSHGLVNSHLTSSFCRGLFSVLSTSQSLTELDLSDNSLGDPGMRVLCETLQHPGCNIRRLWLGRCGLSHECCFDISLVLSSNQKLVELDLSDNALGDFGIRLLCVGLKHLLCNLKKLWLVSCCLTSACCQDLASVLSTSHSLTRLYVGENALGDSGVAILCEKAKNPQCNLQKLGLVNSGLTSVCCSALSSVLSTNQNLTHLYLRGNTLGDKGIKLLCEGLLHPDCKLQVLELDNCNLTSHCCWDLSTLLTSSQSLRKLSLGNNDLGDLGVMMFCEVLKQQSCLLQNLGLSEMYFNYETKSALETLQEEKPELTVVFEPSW
row,EC50 [nM],SMILES
1,1430,"Cc1cc(C(F)(F)F)cc(O)c1-c1cc2c(nn1)N(C1CC(C)(C)C1O)CCC2 (single isomer, unassigned) [Example 5, 2-(8-((1S,2R or 1R,2S)-2-hydroxy-3,3-dimethylcyclobutyl)-5,6,7,8-tetrahydropyrido[2,3-c]pyridazin-3-yl)-3-methyl-5-(trifluoromethyl)phenol]"
2,118,"Cc1cc(C(F)(F)F)cc(O)c1-c1cc2c(nn1)N(C1CC(C)(C)C1O)CCC2 (single isomer, unassigned) [Example 6, 2-(8-((1R,2S or 1S,2R)-2-hydroxy-3,3-dimethylcyclobutyl)-5,6,7,8-tetrahydropyrido[2,3-c]pyridazin-3-yl)-3-methyl-5-(trifluoromethyl)phenol]"
3,42,"Cc1cc(C(F)(F)F)cc(O)c1-c1cc2c(nn1)N([C@H]1C[C@@](C)(O)C1)CCC2 [Example 1, 2-(8-((1s,3s)-3-hydroxy-3-methylcyclobutyl)-5,6,7,8-tetrahydropyrido[2,3-c]pyridazin-3-yl)-3-methyl-5-(trifluoromethyl)phenol]"
4,5,"CCN1CCC[C@@H](N2CCCc3cc(-c4c(C)cc(C(F)(F)F)cc4O)nnc32)C1 [Example 2, (R)-2-(8-(1-ethylpiperidin-3-yl)-5,6,7,8-tetrahydropyrido[2,3-c]pyridazin-3-yl)-3-methyl-5-(trifluoromethyl)phenol]"
5,125,"Cc1cc(C(F)(F)F)cc(O)c1-c1cc2c(nn1)N(C13CCCC(O)(C1)C3)CCC2 [Example 3, 5-(3-(2-hydroxy-6-methyl-4-(trifluoromethyl)phenyl)-6,7-dihydropyrido[2,3-c]pyridazin-8(5H)-yl)bicyclo[3.1.1]heptan-1-ol]"
6,157,"Cc1cc(C(F)(F)F)cc(O)c1-c1cc2c(nn1)N([C@@H]1CCCC[C@H]1O)CCC2 [Example 4, 2-(8-((1R,2R)-2-hydroxycyclohexyl)-5,6,7,8-tetrahydropyrido[2,3-c]pyridazin-3-yl)-3-methyl-5-(trifluoromethyl)phenol]"
7,240,"Cc1cc(C(F)(F)F)cc(O)c1-c1cc2c(nn1)N(C[C@@H]1C[C@H](F)CN1)CCC2 [Example 7, 2-(8-(((2S,4S)-4-fluoropyrrolidin-2-yl)methyl)-5,6,7,8-tetrahydropyrido[2,3-c]pyridazin-3-yl)-3-methyl-5-(trifluoromethyl)phenol]"
8,285,"Cc1cc(C(F)(F)F)cc(O)c1-c1cc2c(nn1)N([C@H]1C[C@@](C)(O)C1)C[C@H](N)C2 [Example 8, 2-((R)-6-amino-8-((1s,3S)-3-hydroxy-3-methylcyclobutyl)-5,6,7,8-tetrahydropyrido[2,3-c]pyridazin-3-yl)-3-methyl-5-(trifluoromethyl)phenol]"
9,48,"CCN1CCC[C@@H](N2CCCc3c2nnc(-c2ccc(C(F)(F)F)cc2O)c3C)C1 [Example 9, (R)-2-(8-(1-ethylpiperidin-3-yl)-4-methyl-5,6,7,8-tetrahydropyrido[2,3-c]pyridazin-3-yl)-5-(trifluoromethyl)phenol]"
10,380,"CCN1CCC[C@@H](N2CCCc3c2nnc(-c2ccc(C(F)(F)F)cc2OC(F)F)c3C)C1 [Example 10, (R)-3-(2-(difluoromethoxy)-4-(trifluoromethyl)phenyl)-8-(1-ethylpiperidin-3-yl)-4-methyl-5,6,7,8-tetrahydropyrido[2,3-c]pyridazine]"
11,1070,"CCN1CCC[C@@H](N2CCCc3c2nnc(-c2ccc(C(F)(F)F)nc2OC(F)F)c3C)C1 [Example 11, (R)-3-(2-(difluoromethoxy)-6-(trifluoromethyl)pyridin-3-yl)-8-(1-ethylpiperidin-3-yl)-4-methyl-5,6,7,8-tetrahydropyrido[2,3-c]pyridazine]"
12,253,"CCN1CCC[C@@H](N2CCCc3c2nnc(-c2ccc4occc4c2)c3C)C1 [Example 12, (R)-3-(benzofuran-5-yl)-8-(1-ethylpiperidin-3-yl)-4-methyl-5,6,7,8-tetrahydropyrido[2,3-c]pyridazine]"
13,629,"Cc1cc(C(F)(F)F)cc(O)c1-c1cc2c(nn1)N(C[C@@H]1C[C@H](F)CN1C)CCC2 [Example 13, 2-(8-(((2S,4S)-4-fluoro-1-methylpyrrolidin-2-yl)methyl)-5,6,7,8-tetrahydropyrido[2,3-c]pyridazin-3-yl)-3-methyl-5-(trifluoromethyl)phenol]"
14,27,"Cc1cc(C(F)(F)F)cc(O)c1-c1cc2c(nn1)N([C@H]1CN(C)CC[C@H]1O)CCC2 [Example 14, (3S,4R)-3-(3-(2-hydroxy-6-methyl-4-(trifluoromethyl)phenyl)-6,7-dihydropyrido[2,3-c]pyridazin-8(5H)-yl)-1-methylpiperidin-4-ol]"
15,692,"CCN1C[C@@H](F)C[C@H]1CN1CCCc2cc(-c3c(C)cc(C(F)(F)F)cc3O)nnc21 [Example 15, 2-(8-(((2S,4S)-1-ethyl-4-fluoropyrrolidin-2-yl)methyl)-5,6,7,8-tetrahydropyrido[2,3-c]pyridazin-3-yl)-3-methyl-5-(trifluoromethyl)phenol]"
16,317,"CC(=O)N1C[C@H](F)C[C@H]1CN1CCCc2cc(-c3c(C)cc(C(F)(F)F)cc3O)nnc21 [Example 16, 1-((2S,4R)-4-fluoro-2-((3-(2-hydroxy-6-methyl-4-(trifluoromethyl)phenyl)-6,7-dihydropyrido[2,3-c]pyridazin-8(5H)-yl)methyl)pyrrolidin-1-yl)ethan-1-one]"
17,597,"CC(=O)N1C[C@@H](F)C[C@H]1CN1CCCc2cc(-c3c(C)cc(C(F)(F)F)cc3O)nnc21 [Example 17, 1-((2S,4S)-4-fluoro-2-((3-(2-hydroxy-6-methyl-4-(trifluoromethyl)phenyl)-6,7-dihydropyrido[2,3-c]pyridazin-8(5H)-yl)methyl)pyrrolidin-1-yl)ethan-1-one]"
18,204,"CCC(=O)N1C[C@H](F)C[C@H]1CN1CCCc2cc(-c3c(C)cc(C(F)(F)F)cc3O)nnc21 [Example 18, 1-((2S,4R)-4-fluoro-2-((3-(2-hydroxy-6-methyl-4-(trifluoromethyl)phenyl)-6,7-dihydropyrido[2,3-c]pyridazin-8(5H)-yl)methyl)pyrrolidin-1-yl)propan-1-one]"
19,431,"Cc1cc(C(F)(F)F)cc(O)c1-c1cc2c(nn1)N(C[C@@H]1C[C@@H](F)CN1C(=O)C1CC1)CCC2 [Example 19, cyclopropyl((2S,4R)-4-fluoro-2-((3-(2-hydroxy-6-methyl-4-(trifluoromethyl)phenyl)-6,7-dihydropyrido[2,3-c]pyridazin-8(5H)-yl)methyl)pyrrolidin-1-yl)methanone]"
20,874,"Cc1cc(C(F)(F)F)cc(O)c1-c1cc2c(nn1)N(C[C@@H]1C[C@@H](F)CN1C(=O)C1CCC1)CCC2 [Example 20, cyclobutyl((2S,4R)-4-fluoro-2-((3-(2-hydroxy-6-methyl-4-(trifluoromethyl)phenyl)-6,7-dihydropyrido[2,3-c]pyridazin-8(5H)-yl)methyl)pyrrolidin-1-yl)methanone]"
21,351,"Cc1cc(C(F)(F)F)cc(O)c1-c1cc2c(nn1)N(C[C@@H]1C[C@@H](F)CN1S(C)(=O)=O)CCC2 [Example 21, 2-(8-(((2S,4R)-4-fluoro-1-(methylsulfonyl)pyrrolidin-2-yl)methyl)-5,6,7,8-tetrahydropyrido[2,3-c]pyridazin-3-yl)-3-methyl-5-(trifluoromethyl)phenol]"
22,784,"Cc1cc(C(F)(F)F)cc(O)c1-c1cc2c(nn1)N(C[C@@H]1C[C@H](F)CN1S(C)(=O)=O)CCC2 [Example 22, 2-(8-(((2S,4S)-4-fluoro-1-(methylsulfonyl)pyrrolidin-2-yl)methyl)-5,6,7,8-tetrahydropyrido[2,3-c]pyridazin-3-yl)-3-methyl-5-(trifluoromethyl)phenol]"
